Patent US7973075B2, “Kainate receptor-selective epimeric analogs of dysiherbaine” (priority 2007, dated 2011)
Values joined by “and” are separate entries in the source; they are usually repeats but may differ in a detail not shown here. Identical values can stand only once. Like-named read-outs stand apart in the source and are kept apart here.

What was measured:
GluR5 = target: T1, GluR5 (Rattus norvegicus, UniProt P22756); assay: Patch-clamp recordings from transfected HEK 293 cells, Example 1; type: cell-based; settings: Example 1, FIG. 3 and 5
T1 construct: expressed in transfected cells; HEK 293 (patch clamp)
Method: Non-specific binding was defined in the presence of 1 mM glutamate. The effect of these analogs on electrophysiology was assessed as follows. HEK 293 cells were transfected with receptor cDNAs in combination with eGFP cDNA. Patch-clamp recordings from transfected cells were made 24-72 hours later using a fast application system described previously (Swanson et al., NEURON 1997; 19:913-26). (See FIG. 3.)
The effect of these analogs on electrophysiology also was assessed as described above. […] The results further indicate that the C8 and C9 substituents are necessary for binding to all AMPA and KAR subunits except for GluR5 subunits. The C9 polar group must be present and in the correct spatial orientation for high-affinity GluR5 subunit binding. Inter-domain contacts mediated by residue 721S are critical determinants of binding affinity. The epimer analog 9-deoxy-neoDH mimics the binding affinity of the di-deoxy analog MSVIII-19, but acts as an agonist rather than an antagonist.

GluR5-2a = target: T2, GluR5-2a (Rattus norvegicus, UniProt P22756, DEL402-416); assay: Radioligand binding ([3H]kainate displacement), HEK-293-T/17 membranes, Example 2; settings: Cheng-Prusoff
T2 construct: expressed in transfected cells; host or cells: HEK-293-T/17
Method: (§1) Radioligand binding. Membrane preparations from HEK-293-T/17 cells were prepared and used in radioligand binding assays as described previously (Sanders et al., 2005). Unlabeled analogs were used to displace [3H]kainate (10-20 nM, PerkinElmer Life and Analytical Sciences, Boston, Mass.) or [3H]AMPA (20 nM, PerkinElmer Life and Analytical Sciences, Boston, Mass.) from KARs and AMPARs, respectively. Nonspecific binding was determined in the presence of 1 mM glutamate. After 1 hour incubation at 4° C., samples were harvested by rapid filtration onto Whatman GF/C membranes. Upon addition of scintillation fluid, membranes were incubated for 1 hour at room temperature. A Beckman LS5000TD scintillation counter was used for quantification (Beckman Coulter Inc., Fullerton, Calif.). Data were plotted and fit with a one-site competition curve with fixed minima and maxima using Prism 4 (GraphPad Software, Inc). Ki's were calculated with the Cheng-Prusoff equation using the determined IC5o values and the radioligand Kd. Data were plotted and fit with a one-site competition curve with fixed minima (0) and maxima (100) (Prism4, GraphPad Software, Inc.). Correlation analysis was performed with these binding data and the seizure activity of each analog, represented as ED50 values.
(§2) The pharmacological profiles of the Group I analogs, 8-deoxy-neoDH and 9-deoxyneoDH, were analyzed initially in radioligand binding experiments with expressed recombinant AMPA and kainate receptor subunits. Displacement of [3H]kainate from cell membranes with a range of analog concentrations yielded IC50 values that were then used to calculate Ki values for each analog/receptor combination. Both Group 1 analogs retained high affinity only for GluR5-2a KAR subunits (FIG. 8A). […] Weak binding to other KAR and AMPAR subunits was observed, with all Ki values estimated at >10 μM (n=3-5; Table 3, FIG. 8A).
(§3) For comparison, the Ki values for neoDH and MSVIII-19 are included in the table (Sanders et al., 2005). Removal of the C9 hydroxyl eliminated binding to all receptor subunits (Ki values estimated at >100 μM), with the exception of GluR5-2a KARs.

GluR6a = target: T3, GluR6a (Rattus norvegicus, UniProt P42260); assay: as above; settings: for Ki: [3H]kainate displacement, Cheng-Prusoff
T3 construct: expressed in transfected cells; host or cells: HEK-293-T/17
Method: as §1, §2, §3

GluR7a = target: T4, GluR7a (Rattus norvegicus, UniProt P42264); assay: as above
T4 construct: expressed in transfected cells; host or cells: HEK-293-T/17
Method: as §1, §2, §3

KA2 = target: T5, KA2 (Rattus norvegicus, UniProt Q63273); assay: as above; settings: Cheng-Prusoff
T5 construct: expressed in transfected cells; host or cells: HEK-293-T/17
T5 sequence (Q63273 15-979): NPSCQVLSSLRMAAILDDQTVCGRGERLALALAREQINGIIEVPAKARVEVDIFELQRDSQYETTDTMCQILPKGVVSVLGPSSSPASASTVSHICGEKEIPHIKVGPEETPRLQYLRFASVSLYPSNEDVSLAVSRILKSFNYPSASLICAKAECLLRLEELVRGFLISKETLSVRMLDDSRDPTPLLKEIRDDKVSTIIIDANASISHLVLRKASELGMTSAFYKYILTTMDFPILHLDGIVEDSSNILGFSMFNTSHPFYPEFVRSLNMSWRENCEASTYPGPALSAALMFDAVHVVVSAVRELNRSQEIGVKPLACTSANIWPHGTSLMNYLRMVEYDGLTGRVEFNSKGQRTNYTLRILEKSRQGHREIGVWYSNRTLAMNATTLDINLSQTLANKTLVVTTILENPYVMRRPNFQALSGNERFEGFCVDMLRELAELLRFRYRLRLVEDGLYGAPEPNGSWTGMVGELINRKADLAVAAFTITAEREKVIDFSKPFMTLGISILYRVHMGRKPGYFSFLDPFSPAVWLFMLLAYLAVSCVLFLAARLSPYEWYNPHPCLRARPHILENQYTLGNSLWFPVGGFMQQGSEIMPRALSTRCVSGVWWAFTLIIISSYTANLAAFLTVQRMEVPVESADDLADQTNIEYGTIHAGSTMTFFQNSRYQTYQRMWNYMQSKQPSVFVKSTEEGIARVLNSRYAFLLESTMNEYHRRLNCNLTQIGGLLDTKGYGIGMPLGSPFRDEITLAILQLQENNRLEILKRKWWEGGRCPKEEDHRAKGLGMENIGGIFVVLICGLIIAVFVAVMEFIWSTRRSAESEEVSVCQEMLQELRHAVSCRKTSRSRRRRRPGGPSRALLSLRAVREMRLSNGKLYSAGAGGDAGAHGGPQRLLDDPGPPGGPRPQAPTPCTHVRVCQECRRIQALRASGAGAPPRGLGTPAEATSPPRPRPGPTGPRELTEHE
Method: as §1, §2, §3

[1] = system: other KAR and AMPAR subunits; assay: Radioligand binding, remaining subunits stated collectively, Example 2
Method: as §1, §2, §3

[2] = target: T6, other KAR and AMPAR subunits; assay: as above; settings: estimated; read-out: Ki values at other KAR and AMPAR subunits (all subunits except those named)
T6 construct: Ki values at other KAR and AMPAR subunits (all subunits except those named); other: estimated
Method: as §1, §2, §3

[3] = [3H]kainate displacement, Cheng-Prusoff, read-out: Ki GluR7a
[4] = [3H]kainate displacement, read-out: Ki KA2

T4 sequence (P42264 32-919): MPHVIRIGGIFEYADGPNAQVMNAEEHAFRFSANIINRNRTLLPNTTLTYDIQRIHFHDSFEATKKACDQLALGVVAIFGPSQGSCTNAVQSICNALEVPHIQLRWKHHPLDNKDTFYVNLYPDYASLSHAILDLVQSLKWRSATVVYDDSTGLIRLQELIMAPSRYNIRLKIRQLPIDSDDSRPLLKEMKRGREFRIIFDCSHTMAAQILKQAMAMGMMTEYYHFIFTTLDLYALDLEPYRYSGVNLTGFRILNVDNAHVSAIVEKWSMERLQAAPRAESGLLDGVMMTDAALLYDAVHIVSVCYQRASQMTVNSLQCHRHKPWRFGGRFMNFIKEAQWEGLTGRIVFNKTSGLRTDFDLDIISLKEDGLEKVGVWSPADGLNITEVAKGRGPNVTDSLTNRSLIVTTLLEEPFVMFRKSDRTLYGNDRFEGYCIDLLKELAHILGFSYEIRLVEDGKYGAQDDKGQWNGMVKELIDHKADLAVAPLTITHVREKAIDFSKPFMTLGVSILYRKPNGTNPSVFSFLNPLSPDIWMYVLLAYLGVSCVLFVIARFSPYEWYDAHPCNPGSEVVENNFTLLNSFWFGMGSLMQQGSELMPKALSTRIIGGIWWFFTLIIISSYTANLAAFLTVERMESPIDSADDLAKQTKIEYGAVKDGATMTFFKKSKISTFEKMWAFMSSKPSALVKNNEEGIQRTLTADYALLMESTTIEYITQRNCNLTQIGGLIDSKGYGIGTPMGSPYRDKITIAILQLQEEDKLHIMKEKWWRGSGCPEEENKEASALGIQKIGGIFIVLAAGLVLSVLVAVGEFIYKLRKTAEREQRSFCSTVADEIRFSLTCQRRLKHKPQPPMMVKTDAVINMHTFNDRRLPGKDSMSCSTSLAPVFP
T1 sequence (P22756 with tags, fused parts or gaps isoform P22756-2): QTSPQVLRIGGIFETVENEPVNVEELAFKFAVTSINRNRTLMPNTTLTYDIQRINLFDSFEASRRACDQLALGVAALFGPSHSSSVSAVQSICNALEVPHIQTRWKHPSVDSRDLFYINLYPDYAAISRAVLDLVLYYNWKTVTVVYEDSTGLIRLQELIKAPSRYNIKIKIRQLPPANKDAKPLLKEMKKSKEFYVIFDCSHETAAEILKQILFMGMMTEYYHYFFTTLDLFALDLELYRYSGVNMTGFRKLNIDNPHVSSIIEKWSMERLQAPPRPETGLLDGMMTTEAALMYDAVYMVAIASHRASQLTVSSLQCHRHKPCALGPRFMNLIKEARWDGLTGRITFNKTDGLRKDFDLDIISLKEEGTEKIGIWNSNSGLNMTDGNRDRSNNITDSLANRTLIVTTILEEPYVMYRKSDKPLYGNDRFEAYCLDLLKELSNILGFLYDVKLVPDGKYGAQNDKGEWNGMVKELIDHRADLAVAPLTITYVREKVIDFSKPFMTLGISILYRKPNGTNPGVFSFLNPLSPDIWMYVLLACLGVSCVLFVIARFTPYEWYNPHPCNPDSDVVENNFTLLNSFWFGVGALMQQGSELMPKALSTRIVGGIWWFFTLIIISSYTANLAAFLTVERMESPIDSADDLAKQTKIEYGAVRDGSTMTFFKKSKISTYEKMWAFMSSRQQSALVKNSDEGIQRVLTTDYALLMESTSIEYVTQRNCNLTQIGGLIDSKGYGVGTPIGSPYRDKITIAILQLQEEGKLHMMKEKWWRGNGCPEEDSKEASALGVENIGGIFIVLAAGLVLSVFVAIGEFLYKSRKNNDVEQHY
T2 sequence (P22756 with tags, fused parts or gaps isoform P22756-2 limits assumed, stated change not applied): as the sequence (P22756 with tags, fused parts or gaps isoform P22756-2) above
T3 sequence (P42260 32-908): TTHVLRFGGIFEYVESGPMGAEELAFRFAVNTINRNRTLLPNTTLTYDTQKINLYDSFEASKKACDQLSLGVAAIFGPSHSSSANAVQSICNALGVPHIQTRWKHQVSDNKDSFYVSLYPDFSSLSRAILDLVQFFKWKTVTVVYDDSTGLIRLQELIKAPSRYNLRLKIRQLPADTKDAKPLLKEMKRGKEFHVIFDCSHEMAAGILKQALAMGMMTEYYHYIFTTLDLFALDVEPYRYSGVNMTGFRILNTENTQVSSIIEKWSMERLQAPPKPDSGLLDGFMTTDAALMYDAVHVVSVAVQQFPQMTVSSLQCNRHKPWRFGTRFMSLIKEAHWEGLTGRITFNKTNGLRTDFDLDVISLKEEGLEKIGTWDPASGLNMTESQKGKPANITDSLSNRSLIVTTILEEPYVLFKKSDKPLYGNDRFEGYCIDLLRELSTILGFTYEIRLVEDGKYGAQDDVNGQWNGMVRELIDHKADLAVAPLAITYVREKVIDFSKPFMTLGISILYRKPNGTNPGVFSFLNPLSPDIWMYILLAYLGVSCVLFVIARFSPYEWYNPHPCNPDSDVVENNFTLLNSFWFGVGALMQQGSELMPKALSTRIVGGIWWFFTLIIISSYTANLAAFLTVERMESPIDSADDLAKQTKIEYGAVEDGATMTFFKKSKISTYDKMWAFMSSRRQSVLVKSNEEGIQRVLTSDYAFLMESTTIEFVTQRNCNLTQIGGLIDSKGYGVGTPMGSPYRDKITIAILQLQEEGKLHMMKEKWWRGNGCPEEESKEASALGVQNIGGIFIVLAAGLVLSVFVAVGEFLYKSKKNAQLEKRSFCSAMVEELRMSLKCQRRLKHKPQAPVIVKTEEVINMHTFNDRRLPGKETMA

Compound	agonist or antagonist at GluR5 (electrophysiology) (GluR5)	Ki (GluR5-2a; read-out: Ki GluR5-2a)	Ki (GluR6a; read-out: Ki GluR6a)	binding to GluR7 receptor (GluR7a)	Ki (GluR7a; [3])	Ki (KA2; [4])	binding to other KA and AMPAR subunits [1]	binding affinity for GluR6a subunit (GluR6a)	Ki (GluR5-2a; Ki GluR5-2a)	Ki (GluR6a; Ki GluR6a)	Ki (GluR7a)	Ki (KA2; Ki KA2, [3H]kainate displacement)	Ki [2]
N[C@@H](C[C@@]1(C(=O)O)CC2OCC(O)C(O)C2O1)C(=O)O (single isomer, unassigned) [4-epi-neoDH, 4-epi-neodysiherbaine]	GluR5/GluR6 antagonist	0.559 µM and ~0.56 µM	6.7 µM	Neither 2,4-epineoDH nor 4-epi-neoDH bound the GluR7 receptor appreciably	> 100 µM	~30 µM	weakly displaced radioligand	–	–	–	–	–	–
NC(CC1(C(=O)O)CC2OCC(O)C(O)C2O1)C(=O)O (stereo not drawn) [8,9-epi-neoDH, 8,9-epi-neodysiherbaine]	GluR5 antagonist	48 µM	> 100 µM	–	> 100 µM	>100 µM	effectively eliminated affinity for all receptor subunits	–	–	–	–	–	–
NC(CC1(C(=O)O)CC2OCC(F)C(O)C2O1)C(=O)O (stereo not drawn) [9-F-8-epi-neoDH]	–	0.028 µM	> 100 µM	–	> 100 µM	>100 µM	–	do not exhibit measurable affinity	–	–	–	–	–
NC(CC1(C(=O)O)CC2OCC(O)C(O)C2O1)C(=O)O (stereo not drawn) [8-epi-neoDH, 8-epi-neodysiherbaine]	GluR5 agonist	0.034 µM	22 µM	–	1.7 µM	>100 µM	–	–	–	–	–	–	–
N[C@@H](C[C@]1(C(=O)O)C[C@H]2OCCC[C@H]2O1)C(=O)O [MSVIII-19, 8,9-dideoxy-neoDH]	–	–	–	–	–	–	–	do not exhibit measurable affinity	–	–	–	–	–
N[C@@H](C[C@]1(C(=O)O)C[C@H]2OC[C@@H](O)C[C@H]2O1)C(=O)O [8-deoxy-neoDH]	GluR5 agonists	–	–	–	–	–	–	–	0.0015 µM	48 µM	2.9 µM	20 µM	> 10 µM
NC(CC1(C(=O)O)CC2OCC(O)C(O)C2O1)C(=O)O (stereo not drawn) [9-epi-neoDH, 9-epi-neodysiherbaine]	–	0.292 µM	> 100 µM	–	> 100 µM	>100 µM	inactive at other subunits	do not exhibit measurable affinity	–	–	–	–	–
N[C@@H](C[C@]1(C(=O)O)C[C@H]2OCC[C@@H](O)[C@H]2O1)C(=O)O [9-deoxy-neoDH]	GluR5 agonists	0.169 µM	> 100 µM	–	> 100 µM	> 100 µM	–	do not exhibit measurable affinity	–	–	–	–	> 100 µM
N[C@@H](C[C@@]1(C(=O)O)CC2OCC(O)C(O)C2O1)C(=O)O (single isomer, unassigned) [2,4-epi-neoDH, 2,4-epi-neodysiherbaine]	–	2.4 µM	7.7 µM	Neither 2,4-epineoDH nor 4-epi-neoDH bound the GluR7 receptor appreciably	> 100 µM	> 100 µM	–	–	–	–	–	–	> 100 µM
